Where two headings read alike, the source gives them in different places. Each block holds one compound with its values, some of them ahead of it.
Experiments:
[1] = cited from earlier work
[2] = Capsaicin solubilization experiments with varying Tween 80, visual assessment; assay type: physicochemical; conditions: capsaicin at 0.05-0.055% concentration
Text: Therefore, it was decided to evaluate the use of the concentrated capsaicin (a white powder) as a replacement for the oily oleoresin capsicum extract. However, as capsaicin powder is hydrophobic it was necessary to determine what quantity of surfactant was necessary to maintain the capsaicin in solution. A study was therefore conducted to determine the required concentration of a chosen surfactant (Tween 80) to achieve and maintain complete dissolution of the capsaicin (assuming a capsaicin concentration of 0.054% w/v). In other words, the level of surfactant required for dissolving the capsaicin in an aqueous vehicle was determined as described below.
A series of experiments were undertaken to prepare various samples with the addition of a set quantity of capsaicin powder (equivalent to 0.05% in solution) and varying concentrations of Tween 80.
Sample 1: 1% Tween 80 was prepared according to the following protocol: […]; Tween 80; […]; and 10 mL stock solution. The sample was sonicated for 2 minutes and then visually assessed. […]
Sample 2: 0.5% Tween 80 was prepared according to the following protocol: […] Tween 80; 0.011 g capsaicin; and 10 mL stock solution. The sample was sonicated for 2 minutes and then visually assessed. […]
All samples were left overnight and visually assessed again on the following day. […]

SMILES: NC(=O)CC[C@@H]1NC(=O)[C@H](Cc2ccccc2)NC(=O)[C@H](Cc2ccc(O)cc2)NC(=O)CCSSC[C@@H](C(=O)N2CCC[C@H]2C(=O)N[C@H](CCCN=C(N)N)C(=O)NCC(N)=O)NC(=O)[C@H](CC(N)=O)NC1=O [desmopressin]
bio-availability of the nasal spray formulation relative to the nasal drop formulation ([1]; in vivo): two to three times higher

SMILES: CCC(=O)O[C@]1(C(=O)SCF)[C@H](C)C[C@H]2[C@@H]3C[C@H](F)C4=CC(=O)C=C[C@]4(C)[C@@]3(F)[C@@H](O)C[C@@]21C [fluticasone propionate]
bio-availability of the nasal spray formulation relative to the nasal drop formulation ([1]; intranasal administration): about eight times higher

required concentration of Tween 80 in the stock solution to achieve complete dissolution of capsaicin [2]: 0.5 % w/v
SMILES: COc1cc(CNC(=O)CCCC/C=C/C(C)C)ccc1O [capsaicin]
